These results are taken from patent publication US6054450A, “Hair-care cosmetic compositions having dandruff formation-suppressing effect” (Pacific Corporation, priority 1997, dated 2000).

A short description of one series: Solubility. The class given is physicochemical.
A further series has as its system Pityrosporum ovlae. Put plainly: Antibacterial activity against Pityrosporum ovlae (general statement). It is filed as cell-based.
Series [1] is described as follows: Stability of iodopropynyl butylcarbamate to temperature and pH. Conditions: 70~80° C. and pH 4~10.
For series [2] the following is noted: cited from earlier work; for Acute Oral LD50: rats.
For series [3] the following is noted: cited from earlier work.

Consider `CCCCNC(=O)OCC#CI` [iodopropynyl butylcarbamate], for which the “solubility in alcohols or glycol derivatives” value in the series “Solubility” (alcohols or glycol derivatives) is recorded as “high solubility”. For the same compound, in “Solubility” (ionic or non-ionic surfactants), the “solubility in ionic or non-ionic surfactants” value is “good solubility”. In “Solubility” (water), the “solubility in water” value was “low solubility”. In the series on Pityrosporum ovlae, the “MIC” value is listed as “very low” and the “antibacterial action” value was “very strong”. In series [1], the “stability” value is “very stable”. The “safety and toxicity compared with zinc pyrithione” value in series [2] (compared with zinc pyrithione) is “very advantageous over zinc pyrithione”. The “Acute Oral LD50” value in series [2] is recorded as 1470 mg/kg.

For the compound `[O-]n1ccccc1=S.[O-]n1ccccc1=S.[Zn+2]` [zinc pyrithione, zinc salt of 1-hydroxy-2(1H) pyridinethione], in series [3] (ethanol), the solubility in ethanol is recorded as 310 ppm. Moreover, the “solubility in water at 25° C.” value in series [3] (water, 25° C.) is “about 15 ppm”. Also, the “solubility” value in series [3] (water, ethanol and most common organic solvents such as ethylene glycol, diethyl ether and isopropanol) is “substantially insoluble”. Also, the “Acute Oral LD50” value in series [2] is given as 354 mg/kg.
